Literature values as cited in patent publication EP0277754A1, “Method involving propylene amine oxime complexes” (AMERSHAM INTERNATIONAL plc, priority 1987, dated 1988).

- retention in human brain: retained only to a small extent
Structure (SMILES): CC(=NO)C(C)(C)NCCCNC(C)(C)C(C)=NO [PnAO]
